Test results as given in patent EP0866656B1, “USE OF N-SUBSTITUTED PYRIDONES AS TUMOR NECROSIS FACTOR ALPHA INHIBITORS” (MARGOLIN, Solomon B., priority 1995, dated 1997).
“And” between values parts separate entries of the source, which are not always exact repeats. Identical values can stand only once.

Tests used:
[1] = tested on: WEHI neoplastic fibroblast cells; assay: Killing of WEHI neoplastic fibroblast cells by TNF-α; format: cell-based; conditions: in vitro, 33 to 300 micrograms/milliliter
Description: (§1) In vitro, pirfenidone at concentrations of 33-900 micrograms/milliliter inhibited the synthesis and/or release of excessive and pathophysiologic amounts of TNF-α from WEHI 164 cells (Table 1, page 40). […]

WEHI 164 cells = assay: Inhibition of synthesis and/or release of TNF-α from WEHI 164 cells; format: cell-based; conditions: in vitro, 33-900 micrograms/milliliter
Description: as §1
(§2) The ability of pirfenidone and related compounds to block the synthesis and the release of TNF-α from macrophages, as well as other cells, was bioassayed by the method of Morgan, Mills, D.L. Lefkowitz, and S.S. Lefkowitz ("An Improved Colorimetric Assay for Tumor Necrosis Factor Using […] Cells Cultured on Novel Microtiter Plates," Jour. Immunol. Method., 145:259-262, 1991).

[2] = Lethality caused by LPS plus D-galactosamine in mice (Example IV); format: in vivo
TNF-α [3] = assay: In vivo induction of circulating (serum) TNF-α by LPS in mice
Protocol: This model is a modification of that previously described for the in vivo induction of circulating TNF-α, (Haranaka et al., Cancer Immunol. Immunother, 18:87-90,1984).
The bioassays for TNF-α were confirmed in monitoring tests by using a modification of the basic sandwich ELISA method (Winston et al., "Current Protocols in Molecular Biology," page 11.2.1, Ausubel et al., Ed. 1987.) All other plasma levels of TNF were measured using a modification of the basic sandwich ELISA method (Winston et al., "Current Protocols in Molecular Biology," Pg. 11.2.1, Ausubel et al., Ed. 1987.).
The LPS was injected intravenously into the mice at a dosage of 2.5 micrograms (in a volume of […] from a stock solution of 100 micrograms per […]) per mouse, and the Pirfenidone was administered immediately thereafter. The mice were then bled by cardiac puncture 90 minutes later. Subsequently, the serum was analyzed for TNF-α by a ELISA kit (Endogen).

macrophages = assay: Toxicity to macrophages in culture; format: cell-based, murine; conditions: 0.9 mg/ml
Description: (§3) The reduction was directly related to the concentration of pirfenidone in the culture media.

[4] = Diffusion capacity of the lungs (serial DLCO) in patients with pulmonary dysfunction; format: in vivo; conditions: oral, preliminary tests
TNF-α [5] = assay: TNF induction by macrophages exposed to LPS (TNF bioassay of culture medium); format: cell-based, murine; conditions: for TNF induction by macrophages exposed to LPS, Mean +/- S.E.: mean of experiments 1-6
Description: as §3, §2

TNF-α [6] = assay: Endotoxin [LPS] shock in animals (Example III); format: in vivo; conditions: i.p. dosages of 30-400 milligrams per kilogram of body weight
TNF-α [7] = assay: TNF-α synthesis within lysed macrophages, ELISA (Example II); format: cell-based, murine; conditions: 60 minutes
Protocol: In order to determine the direct impact of graded concentrations of pirfenidone upon the synthesis of TNF-α within the cytoplasm of murine macrophages, cell cultures of macrophages, grown in appropriate culture media, were treated with the respective concentrations pirfenidone for 60 minutes: (1) without exposure to LPS (controls) and (2) exposure to 1.0 pg/ml of LPS (E. coli.). Promptly after an exposure for 60 minutes, (a) the macrophages were separated from the culture medium by centrifugation, and (b) the macrophages were lysed. Subsequently, the lysed contents (cell cytoplasm and nucleus) from the macrophage cells were assayed via ELISA for TNF-α levels.

mouse T cells = conditions: cited from earlier work; for inhibition of T cell activation (proliferation and IL-2 secretion): anti-CD3 antibody
human T cells = conditions: cited from earlier work; for inhibition of T cell activation (proliferation and IL-2 secretion): anti-CD3 antibody
TNF-α [8] = conditions: oral dosing, serum TNF-α; cited from earlier work
THP-1 cells = conditions: LPS-activated THP-1 cells; read-out: 1C50S, inhibition of TNF-α secretion; cited from earlier work
TNF-α [9] = conditions: cited from earlier work

Cc1ccc(=O)n(-c2ccccc2)c1 [pirfenidone, 5-Methyl-1-phenyl-2-(1H)-pyridone]
killing of WEHI neoplastic fibroblast cells by TNF-α [1]: did not inhibit | synthesis and/or release of excessive and pathophysiologic amounts of TNF-α from WEHI 164 cells (WEHI 164 cells): inhibited | serum levels of TNF-α in the surviving mice ([2]; 300 mg/kg i.p. 30 minutes prior to LPS plus D-galactosamine): approached normal baseline levels | mortality ([2]; 300 mg/kg i.p. 30 minutes prior to i.v. LPS plus 600mg/kg i.p. D-galactosamine, observed 2 days, 100.0% without pirfenidone): 10.0% | inhibition of the rise in TNF-α serum levels as compared to Control Group (TNF-α [3]; LPS 2.5 micrograms i.v. per mouse, bled 90 minutes later): 50% | formation and release of TNF-α into the circulation (TNF-α [3]; mice, 200 milligrams per kilogram intraperitoneal or greater, maintained for hours): complete blockage | efficacy when given orally (rise in TNF-α serum levels) (TNF-α [3]; oral, same dosages): effective in the same dosages | toxicity with macrophages (macrophages): No toxicity was apparent | diffusion capacity of the lungs as measured by serial DLCO determinations [4]: marked, rapid and consistent improvement | TNF induction by macrophages exposed to LPS, Mean +/- S.E. (TNF-α [5]; Pirfenidone 100 micrograms/ml): 144+/-29 Relative TNF Units | TNF induction by macrophages exposed to LPS (TNF-α [5]; Pirfenidone 100 micrograms/ml, pre-incubation 0 hours): 109 Relative TNF Units and 87 Relative TNF Units | TNF induction by macrophages exposed to LPS (TNF-α [5]; Pirfenidone 100 micrograms/ml, pre-incubation 24 hours): 209 Relative TNF Units | TNF induction by macrophages exposed to LPS, Mean +/- S.E. (TNF-α [5]; Pirfenidone 300 micrograms/ml): 84+/-31 Relative TNF Units | TNF induction by macrophages exposed to LPS (TNF-α [5]; Pirfenidone 300 micrograms/ml, pre-incubation 24 hours): 143 Relative TNF Units | TNF induction by macrophages exposed to LPS, Mean +/- S.E. (TNF-α [5]; Pirfenidone 900 micrograms/ml): 43+/-18 Relative TNF Units | TNF induction by macrophages exposed to LPS (TNF-α [5]; Pirfenidone 900 micrograms/ml, pre-incubation 24 hours): 111 Relative TNF Units | level of TNF-α secreted into the culture medium (TNF-α [5]; thioglycollate-induced murine peritoneal macrophages exposed to LPS, P<0.01): markedly reduced level | pathophysiological toxic effects of TNF-α (endotoxin [LPS] shock) (TNF-α [6]): inhibited or completely blocked | LPS induced rise in TNF-α synthesis within cytoplasm and nucleus of macrophages (TNF-α [7]; LPS (E. coli.) 1.0 pg/ml, concentration related, P< 0.01): inhibition | levels of TNF-α within the cytoplasm of the macrophages (TNF-α [7]; controls, no exposure to LPS, 0.9 mg/ml): only baseline levels were found

CC(C)(C)NCC(O)c1ccc(O)c(CO)c1 (stereo not shown) [albuterol]
inhibition of T cell activation (proliferation and IL-2 secretion) (mouse T cells): completely inactive | inhibition of T cell activation (proliferation and IL-2 secretion) (human T cells): completely inactive | duration of efficacy (TNF-α [8]): much shorter duration of action

OCc1cc(C(O)CNCCCCCCOCCCCc2ccccc2)ccc1O (stereo not shown) [salmeterol]
inhibition of T cell activation (proliferation and IL-2 secretion) (mouse T cells): able to inhibit | T cell inhibition, fold less potent than that for TNF-α production (mouse T cells): about 10 fold | IC50 (THP-1 cells): ~0.1 µM | inhibition of T cell activation (proliferation and IL-2 secretion) (human T cells): able to inhibit | T cell inhibition, fold less potent than that for TNF-α production (human T cells): about 10 fold | duration of efficacy (TNF-α [8]): 3 h | inhibition of serum TNF-α levels (TNF-α [9]; LPS/galactosamine endotoxic shock): up to 94% | animals protected from the lethal effects of the LPS/galactosamine mixture (TNF-α [9]; in vivo): less than 50%
